Data on nine compounds can be found in ChEMBL document CHEMBL1157692, “Probing the carbohydrate recognition domain of E-selectin: the importance of the acid orientation in sLex mimetics” (Bioorg Med Chem, 2010).

Calls of active or inactive are those of the source. The calls are words filed in the database; no cut-off is given here.

One assay addresses T1, E-selectin (Homo sapiens) (UniProt P16581).
T1 sequence (whole entry): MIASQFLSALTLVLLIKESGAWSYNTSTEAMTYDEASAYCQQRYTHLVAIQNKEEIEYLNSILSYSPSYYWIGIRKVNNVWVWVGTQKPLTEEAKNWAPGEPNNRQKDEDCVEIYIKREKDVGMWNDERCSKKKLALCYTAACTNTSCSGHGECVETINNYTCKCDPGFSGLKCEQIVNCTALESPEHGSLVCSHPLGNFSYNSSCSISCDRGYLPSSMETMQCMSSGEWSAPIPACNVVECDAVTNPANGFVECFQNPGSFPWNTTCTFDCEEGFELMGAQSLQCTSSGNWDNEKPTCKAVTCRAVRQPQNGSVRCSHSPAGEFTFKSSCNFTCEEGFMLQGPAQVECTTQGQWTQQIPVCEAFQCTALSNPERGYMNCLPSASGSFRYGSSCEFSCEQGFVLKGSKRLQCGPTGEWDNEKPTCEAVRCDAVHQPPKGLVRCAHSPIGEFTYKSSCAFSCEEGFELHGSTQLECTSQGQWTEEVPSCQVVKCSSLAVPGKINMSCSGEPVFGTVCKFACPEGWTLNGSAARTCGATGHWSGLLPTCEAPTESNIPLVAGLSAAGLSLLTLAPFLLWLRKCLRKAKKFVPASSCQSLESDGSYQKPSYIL
The experiment in a line: Ratio of sialyl Lewis X IC50 to compound IC50 for E-selectin by ELISA. On the technique in general: In an ELISA, binding on a coated surface is turned into a signal by an enzyme label.
On to `C[C@@H]1O[C@@H](O[C@@H]2CCCC[C@H]2O[C@@H]2O[C@H](CO)[C@H](O)[C@H](O[C@@H](CC3CCCCC3)C(=O)O)[C@H]2O)[C@@H](O)[C@H](O)[C@@H]1O`, for which the Ratio IC50 was determined as 12.

The target in another assay is T1, E-selectin (Homo sapiens). The assay is described as follows: Ratio of compound IC50 to sialyl Lewis X IC50 for E-selectin by ELISA.
Take `C[C@@H]1O[C@@H](O[C@@H]2CCCC[C@H]2O[C@@H]2O[C@H](CO)[C@H](O)[C@H](O[C@@H](Cn3ccnn3)C(=O)O)[C@H]2O)[C@@H](O)[C@H](O)[C@@H]1O`: the Ratio IC50 was 0.48.
Still for that read-out and setting: then `C[C@@H]1O[C@@H](O[C@@H]2CCCC[C@H]2O[C@@H]2O[C@H](CO)[C@H](O)[C@H](O[C@@H](Cn3cc(Cn4nnc5c4CCCC5)nn3)C(=O)O)[C@H]2O)[C@@H](O)[C@H](O)[C@@H]1O`, with 1.22; and `C[C@@H]1O[C@@H](O[C@@H]2CCCC[C@H]2O[C@@H]2O[C@H](CO)[C@H](O)[C@H](O[C@@H](Cn3cc(-c4ccsc4)nn3)C(=O)O)[C@H]2O)[C@@H](O)[C@H](O)[C@@H]1O`, with 0.88; and `C[C@@H]1O[C@@H](O[C@@H]2CCCC[C@H]2O[C@@H]2O[C@H](CO)[C@H](O)[C@H](O[C@@H](Cn3cc(Cn4nnc5ccccc54)nn3)C(=O)O)[C@H]2O)[C@@H](O)[C@H](O)[C@@H]1O`, with 1.18.
Still for that read-out and setting: the same measure for `C[C@@H]1O[C@@H](O[C@@H]2CCCC[C@H]2O[C@@H]2O[C@H](CO)[C@H](O)[C@H](O[C@@H](Cn3cc(Cc4ccccc4)nn3)C(=O)O)[C@H]2O)[C@@H](O)[C@H](O)[C@@H]1O`: 1.03; for `C[C@@H]1O[C@@H](O[C@@H]2CCCC[C@H]2O[C@@H]2O[C@H](CO)[C@H](O)[C@H](O[C@@H](CC3CCCCC3)C(=O)O)[C@H]2O)[C@@H](O)[C@H](O)[C@@H]1O`: 0.08.
In the case of `C[C@@H]1O[C@@H](O[C@@H]2CCCC[C@H]2O[C@@H]2O[C@H](CO)[C@H](O)[C@H](O[C@@H](CN=[N+]=[N-])C(=O)O)[C@H]2O)[C@@H](O)[C@H](O)[C@@H]1O`, the Ratio IC50 stood at 0.29.
Same read-out and setting: then `C[C@@H]1O[C@@H](O[C@@H]2CCCC[C@H]2O[C@@H]2O[C@H](CO)[C@H](O)[C@H](O[C@@H](Cn3cc(-c4cccnc4)nn3)C(=O)O)[C@H]2O)[C@@H](O)[C@H](O)[C@@H]1O`, with 3.13.

A further assay deals with T1, E-selectin (Homo sapiens). The experiment in a line: Inhibition of CGP-69669A binding to E-selectin by ELISA.
In the case of `C[C@@H]1O[C@@H](O[C@@H]2CCCC[C@H]2O[C@@H]2O[C@H](CO)[C@H](O)[C@H](O[C@@H](Cn3cc(-c4cccc(C(F)(F)F)c4)nn3)C(=O)O)[C@H]2O)[C@@H](O)[C@H](O)[C@@H]1O`, the inhibition result is “inactive”.
